Experimental data published in patent publication US20080009418A1, “Selective Inhibitors” (Alchemia LTD., priority 2004, published 2008).

Experiments:
Human δ-opioid (DOP) = biological target: T1, Human δ-opioid (DOP) (Homo sapiens, UniProt P41143); assay: Radioligand binding, human δ-opioid (DOP) membranes, FlashPlate, [3H]-Bremazocine; conditions: compound at 10 μM; [3H]-Bremazocine
T1 construct: purchased Perkin Elmer Biosignal
Method in brief: (§1)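 Cloned human receptor membranes were coated onto FlashPlate wells and incubated with radioligand and compound (added from a 0.5 mM DMSO daughter plate) for 1 hour at room temperature in the dark. Scintillation counting gave percent inhibition, with DMSO defining total and reference ligand defining non-specific binding.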

Human κ-Opioid (KOP) = biological target: T2, Human κ-Opioid (KOP) (Homo sapiens, UniProt P41145); assay: Radioligand binding, human κ-opioid (KOP) membranes, filtration, [3H]-Diprenorphine; conditions: compound at 10 μM; [3H]-Diprenorphine
T2 construct: purchased Perkin Elmer Biosignal
T2 sequence (P41145 whole entry): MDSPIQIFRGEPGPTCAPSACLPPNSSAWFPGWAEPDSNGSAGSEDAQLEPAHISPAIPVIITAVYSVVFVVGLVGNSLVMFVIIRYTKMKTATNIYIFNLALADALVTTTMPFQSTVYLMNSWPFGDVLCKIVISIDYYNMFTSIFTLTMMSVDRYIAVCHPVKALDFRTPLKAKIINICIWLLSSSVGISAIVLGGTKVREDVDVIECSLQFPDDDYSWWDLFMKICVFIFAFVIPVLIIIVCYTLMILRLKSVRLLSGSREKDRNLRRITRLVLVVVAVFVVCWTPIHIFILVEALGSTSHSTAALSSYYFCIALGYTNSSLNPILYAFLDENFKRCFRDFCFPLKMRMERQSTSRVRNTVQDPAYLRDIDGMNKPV
Method in brief: (§2)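 Membranes from cloned human receptors were incubated with compound and radioligand for 1 hour at room temperature. Bound ligand was collected on 0.3% PEI-soaked filters, washed with cold 50 mM Tris-HCl pH 7.4, and counted by scintillation. Percent inhibition was computed against DMSO totals and reference-ligand nonspecific wells.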

Human Melanocortin (MC3) = biological target: T3, Human Melanocortin (MC3) (Homo sapiens, UniProt P41968); assay: Radioligand binding, human melanocortin MC3 membranes, FlashPlate, [125I]-NDP-αMSH; conditions: compound at 10 μM; [125I]-NDP-αMSH
T3 construct: purchased Perkin Elmer Biosignal
T3 sequence (P41968 whole entry): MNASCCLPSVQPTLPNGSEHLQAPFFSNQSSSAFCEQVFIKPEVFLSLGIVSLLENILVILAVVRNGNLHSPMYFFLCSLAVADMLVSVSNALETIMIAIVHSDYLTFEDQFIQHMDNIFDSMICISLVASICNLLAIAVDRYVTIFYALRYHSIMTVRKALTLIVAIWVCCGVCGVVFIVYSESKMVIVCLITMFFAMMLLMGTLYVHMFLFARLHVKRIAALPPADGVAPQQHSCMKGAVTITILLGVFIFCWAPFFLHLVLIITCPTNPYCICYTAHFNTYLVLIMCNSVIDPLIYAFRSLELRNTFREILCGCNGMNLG
Method in brief: as §1

Human Melanocortin (MC4) = biological target: T4, Human Melanocortin (MC4) (Homo sapiens, UniProt P32245); assay: Radioligand binding, human melanocortin MC4 membranes, FlashPlate, [125I]-NDP-αMSH; conditions: compound at 10 μM; [125I]-NDP-αMSH
T4 construct: purchased Perkin Elmer Biosignal
T4 sequence (P32245 whole entry): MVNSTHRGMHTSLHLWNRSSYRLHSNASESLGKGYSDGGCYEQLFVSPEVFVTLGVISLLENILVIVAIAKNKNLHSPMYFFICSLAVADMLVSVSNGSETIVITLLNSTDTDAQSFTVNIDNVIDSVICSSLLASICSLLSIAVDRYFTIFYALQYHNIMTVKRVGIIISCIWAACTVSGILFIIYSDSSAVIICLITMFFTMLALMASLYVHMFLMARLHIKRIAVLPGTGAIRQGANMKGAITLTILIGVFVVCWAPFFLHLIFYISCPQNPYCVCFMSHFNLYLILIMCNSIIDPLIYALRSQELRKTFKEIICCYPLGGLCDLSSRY
Method in brief: as §1

Human melanocortin (MC5) = biological target: T5, Human melanocortin (MC5) (Homo sapiens, UniProt P33032); assay: Radioligand binding, human melanocortin MC5 membranes, FlashPlate, [125I]-NDP-αMSH; conditions: compound at 10 μM; [125I]-NDP-αMSH
T5 construct: purchased Perkin Elmer Biosignal
T5 sequence (P33032 whole entry): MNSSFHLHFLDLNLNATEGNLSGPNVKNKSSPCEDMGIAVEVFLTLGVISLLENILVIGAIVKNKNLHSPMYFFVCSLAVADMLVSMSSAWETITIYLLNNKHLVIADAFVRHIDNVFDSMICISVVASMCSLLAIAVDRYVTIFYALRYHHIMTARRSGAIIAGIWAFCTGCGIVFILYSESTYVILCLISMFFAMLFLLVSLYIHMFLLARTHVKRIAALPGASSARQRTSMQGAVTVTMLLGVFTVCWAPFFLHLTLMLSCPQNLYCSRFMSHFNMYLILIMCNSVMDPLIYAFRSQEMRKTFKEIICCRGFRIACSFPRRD
Method in brief: as §1

[1] = biological target: T6, Human melanin-concentrating hormone (MCH1) (Homo sapiens, UniProt Q99705); assay: Radioligand binding, human melanin-concentrating hormone MCH1 membranes, FlashPlate, [125I]-S36057; conditions: compound at 10 μM; [125I]-S36057
T6 construct: purchased Perkin Elmer Biosignal
T6 sequence (Q99705 whole entry): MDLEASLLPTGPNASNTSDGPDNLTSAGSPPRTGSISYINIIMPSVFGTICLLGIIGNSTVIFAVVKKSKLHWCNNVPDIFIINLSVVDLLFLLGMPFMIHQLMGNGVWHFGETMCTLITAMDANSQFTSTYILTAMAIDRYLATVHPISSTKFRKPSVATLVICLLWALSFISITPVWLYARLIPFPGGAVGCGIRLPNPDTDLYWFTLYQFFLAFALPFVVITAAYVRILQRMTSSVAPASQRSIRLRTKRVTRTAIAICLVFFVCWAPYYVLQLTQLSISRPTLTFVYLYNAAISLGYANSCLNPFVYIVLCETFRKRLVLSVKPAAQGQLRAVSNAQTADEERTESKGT
Method in brief: as §1

Human μ-opioid (MOP) = biological target: T7, Human μ-opioid (MOP) (Homo sapiens, UniProt P35372); assay: Radioligand binding, human μ-opioid (MOP) membranes, FlashPlate, [3H]-Naloxone; conditions: compound at 10 μM; [3H]-Naloxone
T7 construct: purchased Perkin Elmer Biosignal
T7 sequence (P35372 whole entry): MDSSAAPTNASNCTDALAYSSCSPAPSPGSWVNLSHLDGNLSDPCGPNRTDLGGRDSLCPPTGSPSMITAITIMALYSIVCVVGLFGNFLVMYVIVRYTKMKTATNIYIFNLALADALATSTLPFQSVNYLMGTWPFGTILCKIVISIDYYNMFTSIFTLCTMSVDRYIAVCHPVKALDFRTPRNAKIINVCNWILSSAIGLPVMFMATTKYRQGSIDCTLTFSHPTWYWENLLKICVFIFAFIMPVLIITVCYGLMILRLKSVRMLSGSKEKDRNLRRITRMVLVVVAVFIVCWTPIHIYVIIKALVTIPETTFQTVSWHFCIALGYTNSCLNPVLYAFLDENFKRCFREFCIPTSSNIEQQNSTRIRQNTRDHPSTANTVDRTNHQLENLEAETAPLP
Method in brief: as §1

Human neurokinin (NK1) = biological target: T8, Human neurokinin (NK1) (Homo sapiens, UniProt P25103); assay: Radioligand binding, human neurokinin NK1 membranes, filtration, [125I]-Substance P; conditions: compound at 10 μM; [125I]-Substance P
T8 construct: purchased Perkin Elmer Biosignal
T8 sequence (P25103 whole entry): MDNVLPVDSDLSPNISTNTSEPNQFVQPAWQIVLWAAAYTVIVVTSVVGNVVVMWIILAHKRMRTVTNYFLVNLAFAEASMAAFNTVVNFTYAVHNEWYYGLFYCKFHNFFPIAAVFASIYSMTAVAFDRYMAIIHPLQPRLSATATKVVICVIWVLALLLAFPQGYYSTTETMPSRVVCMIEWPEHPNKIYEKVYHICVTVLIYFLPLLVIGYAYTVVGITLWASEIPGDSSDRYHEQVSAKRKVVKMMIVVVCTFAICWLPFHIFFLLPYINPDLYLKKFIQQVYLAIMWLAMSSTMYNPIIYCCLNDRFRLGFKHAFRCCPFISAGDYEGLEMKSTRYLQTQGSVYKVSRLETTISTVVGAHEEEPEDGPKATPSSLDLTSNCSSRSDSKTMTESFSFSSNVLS
Method in brief: as §2

[2] = biological target: T9, Human neuropeptide Y (NPY-Y1) (Homo sapiens, UniProt P25929); assay: Radioligand binding, human neuropeptide Y NPY-Y1 membranes, FlashPlate, [125I]-PYY; conditions: compound at 10 μM; [125I]-PYY
T9 construct: purchased Perkin Elmer Biosignal
T9 sequence (P25929 1-384): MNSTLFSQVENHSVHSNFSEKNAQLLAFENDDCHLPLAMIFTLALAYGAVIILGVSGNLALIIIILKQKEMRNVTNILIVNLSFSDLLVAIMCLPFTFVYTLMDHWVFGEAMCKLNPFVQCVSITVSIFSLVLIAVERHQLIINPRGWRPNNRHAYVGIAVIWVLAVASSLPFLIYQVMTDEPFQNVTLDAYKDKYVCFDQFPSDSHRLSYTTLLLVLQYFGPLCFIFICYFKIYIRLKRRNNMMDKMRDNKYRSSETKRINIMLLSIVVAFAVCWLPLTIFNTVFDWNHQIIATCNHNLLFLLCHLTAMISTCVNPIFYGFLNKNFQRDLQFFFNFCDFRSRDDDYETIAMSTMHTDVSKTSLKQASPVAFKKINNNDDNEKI
Method in brief: as §1

Human opioid (ORL1) = biological target: T10, Human opioid (ORL1) (Homo sapiens, UniProt P41146); assay: Radioligand binding, human opioid ORL1 membranes, FlashPlate, [125I]-Nociceptin; conditions: compound at 10 μM; [125I]-Nociceptin
T10 construct: purchased Perkin Elmer Biosignal
T10 sequence (P41146 whole entry): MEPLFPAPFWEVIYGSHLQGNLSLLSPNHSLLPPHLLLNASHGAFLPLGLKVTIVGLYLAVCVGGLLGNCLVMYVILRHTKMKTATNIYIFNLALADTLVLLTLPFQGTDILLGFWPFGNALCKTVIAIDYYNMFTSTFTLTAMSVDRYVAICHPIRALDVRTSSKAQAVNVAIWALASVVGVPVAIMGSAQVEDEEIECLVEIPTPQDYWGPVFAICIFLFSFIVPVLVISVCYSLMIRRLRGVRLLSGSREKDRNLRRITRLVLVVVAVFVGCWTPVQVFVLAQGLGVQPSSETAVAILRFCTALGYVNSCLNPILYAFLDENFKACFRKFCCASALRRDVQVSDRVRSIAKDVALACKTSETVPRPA
Method in brief: as §1

Mouse urotensin (mUR2) = biological target: T11, Mouse urotensin (mUR2) (Mus musculus, UniProt Q8VIH9); assay: Radioligand binding, mouse urotensin mUR2 membranes, FlashPlate, [125I]-Urotensin II; conditions: compound at 10 μM; [125I]-Urotensin II
T11 construct: purchased Perkin Elmer Biosignal
T11 sequence (Q8VIH9 1-385): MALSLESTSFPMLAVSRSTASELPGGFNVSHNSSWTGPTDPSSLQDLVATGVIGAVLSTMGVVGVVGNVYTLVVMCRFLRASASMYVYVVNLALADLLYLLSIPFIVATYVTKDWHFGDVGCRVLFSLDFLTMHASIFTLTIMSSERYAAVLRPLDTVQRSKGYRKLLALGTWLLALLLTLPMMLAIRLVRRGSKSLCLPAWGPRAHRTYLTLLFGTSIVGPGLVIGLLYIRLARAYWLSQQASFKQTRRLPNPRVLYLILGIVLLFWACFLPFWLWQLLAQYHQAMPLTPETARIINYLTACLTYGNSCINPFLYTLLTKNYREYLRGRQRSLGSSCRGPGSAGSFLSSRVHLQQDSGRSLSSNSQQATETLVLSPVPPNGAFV
Method in brief: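 Cloned mouse urotensin (mUR2) receptor membranes from Perkin Elmer Biosignal were immobilized in FlashPlate microplates using a proprietary coating. Each well got 19.5 μl buffer, then 0.5 μl of DMSO, reference ligand, or compound. Adding 5 μl of [125I]-Urotensin II, diluted to 5× final concentration in binding buffer, started binding. Plates were sealed with TopSeal-A and incubated 1 hour at room temperature in the dark. Wells were counted for 30 seconds each on a TopCount after a 60-second delay, and percentage inhibition was calculated.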

T1 sequence (P41143 whole entry): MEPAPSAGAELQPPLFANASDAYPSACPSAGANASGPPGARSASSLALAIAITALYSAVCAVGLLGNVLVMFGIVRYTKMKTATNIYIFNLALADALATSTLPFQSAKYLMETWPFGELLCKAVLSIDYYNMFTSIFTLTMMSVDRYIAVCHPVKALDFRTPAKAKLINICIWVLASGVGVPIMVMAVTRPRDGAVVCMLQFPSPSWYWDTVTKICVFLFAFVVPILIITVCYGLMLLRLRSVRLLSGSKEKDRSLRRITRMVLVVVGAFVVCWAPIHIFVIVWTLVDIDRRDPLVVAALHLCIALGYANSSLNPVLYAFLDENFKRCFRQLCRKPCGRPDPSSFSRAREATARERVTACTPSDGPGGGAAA

Row | SMILES | A1 radioligand binding, percentage inhibition (Human δ-opioid (DOP)) | A2 radioligand binding, percentage inhibition (Human κ-Opioid (KOP)) | A3 radioligand binding, percentage inhibition (Human Melanocortin (MC3)) | A4 radioligand binding, percentage inhibition (Human Melanocortin (MC4)) | A5 radioligand binding, percentage inhibition (Human melanocortin (MC5)) | A6 radioligand binding, percentage inhibition [1] | A7 radioligand binding, percentage inhibition (Human μ-opioid (MOP)) | A8 radioligand binding, percentage inhibition (Human neurokinin (NK1)) | A9 radioligand binding, percentage inhibition [2] | A10 radioligand binding, percentage inhibition (Human opioid (ORL1)) | A11 radioligand binding, percentage inhibition (Mouse urotensin (mUR2))
1 | COC[C@H]1OC(OCc2ccc(Cl)cc2)[C@H](NC(=O)CNC(=N)N)[C@@H](OCc2cccc(O)c2)[C@@H]1O (stereo partly shown) [compound 137] | − (“−” indicates less than 50% inhibition at 10 μM) | − (“−” indicates less than 50% inhibition at 10 μM) | − (“−” indicates less than 50% inhibition at 10 μM) | − (“−” indicates less than 50% inhibition at 10 μM) | + (“+” indicates greater than 50% inhibition at 10 μM) | − (“−” indicates less than 50% inhibition at 10 μM) | + (“+” indicates greater than 50% inhibition at 10 μM) | − (“−” indicates less than 50% inhibition at 10 μM) | − (“−” indicates less than 50% inhibition at 10 μM) | − (“−” indicates less than 50% inhibition at 10 μM) | − (“−” indicates less than 50% inhibition at 10 μM)
2 | COC[C@H]1OC(OCc2ccc(Cl)cc2)[C@H](NC(=O)CCNC(=N)N)[C@@H](OCc2cccc(O)c2)[C@@H]1O (stereo partly shown) [compound 138] | + (“+” indicates greater than 50% inhibition at 10 μM) | − (“−” indicates less than 50% inhibition at 10 μM) | − (“−” indicates less than 50% inhibition at 10 μM) | − (“−” indicates less than 50% inhibition at 10 μM) | − (“−” indicates less than 50% inhibition at 10 μM) | − (“−” indicates less than 50% inhibition at 10 μM) | + (“+” indicates greater than 50% inhibition at 10 μM) | − (“−” indicates less than 50% inhibition at 10 μM) | − (“−” indicates less than 50% inhibition at 10 μM) | − (“−” indicates less than 50% inhibition at 10 μM) | − (“−” indicates less than 50% inhibition at 10 μM)
3 | COC[C@H]1OC(OCc2ccc(Cl)cc2)[C@H](NC(=O)CCCNC(=N)N)[C@@H](OCc2cccc(O)c2)[C@@H]1O (stereo partly shown) [compound 139] | − (“−” indicates less than 50% inhibition at 10 μM) | − (“−” indicates less than 50% inhibition at 10 μM) | − (“−” indicates less than 50% inhibition at 10 μM) | − (“−” indicates less than 50% inhibition at 10 μM) | − (“−” indicates less than 50% inhibition at 10 μM) | + (“+” indicates greater than 50% inhibition at 10 μM) | + (“+” indicates greater than 50% inhibition at 10 μM) | − (“−” indicates less than 50% inhibition at 10 μM) | − (“−” indicates less than 50% inhibition at 10 μM) | − (“−” indicates less than 50% inhibition at 10 μM) | − (“−” indicates less than 50% inhibition at 10 μM)
4 | COC[C@H]1OC(OCCc2ccccc2)[C@H](NC(=O)CCCN)[C@@H](OCc2cccc(O)c2)[C@@H]1O (stereo partly shown) [compound 140] | − (“−” indicates less than 50% inhibition at 10 μM) | − (“−” indicates less than 50% inhibition at 10 μM) | − (“−” indicates less than 50% inhibition at 10 μM) | − (“−” indicates less than 50% inhibition at 10 μM) | − (“−” indicates less than 50% inhibition at 10 μM) | − (“−” indicates less than 50% inhibition at 10 μM) | − (“−” indicates less than 50% inhibition at 10 μM) | + (“+” indicates greater than 50% inhibition at 10 μM) | − (“−” indicates less than 50% inhibition at 10 μM) | − (“−” indicates less than 50% inhibition at 10 μM) | − (“−” indicates less than 50% inhibition at 10 μM)
5 | COC[C@H]1OC(OCc2cccc(O)c2)[C@H](NC(=O)CNC(=N)N)[C@@H](OCc2ccc(-c3ccccc3)cc2)[C@@H]1O (stereo partly shown) [compound 141] | − (“−” indicates less than 50% inhibition at 10 μM) | − (“−” indicates less than 50% inhibition at 10 μM) | − (“−” indicates less than 50% inhibition at 10 μM) | − (“−” indicates less than 50% inhibition at 10 μM) | + (“+” indicates greater than 50% inhibition at 10 μM) | + (“+” indicates greater than 50% inhibition at 10 μM) | − (“−” indicates less than 50% inhibition at 10 μM) | − (“−” indicates less than 50% inhibition at 10 μM) | − (“−” indicates less than 50% inhibition at 10 μM) | − (“−” indicates less than 50% inhibition at 10 μM) | − (“−” indicates less than 50% inhibition at 10 μM)
